Consider twelve compounds from PMC9885526 (ACS Central Science, 2023).

In series [1] the test system is SARS-CoV-2. Also noted: species or system K18-hACE2 transgenic mice. The conditions noted are these: mouse, in vivo, po, 300 mg/kg.
Series [2] deals with SARS-CoV-2 (wild-type strain). Nature of the series: microbe, parasite or virus in culture. It is filed as cell-based. The conditions noted are these: Severe acute respiratory syndrome coronavirus 2.
Series [3] has as its system SARS-CoV-2. The conditions noted are these: cited from earlier work.
For a further series, the target named is SARS-CoV-2 3CLpro (Severe acute respiratory syndrome coronavirus 2, UniProt P0DTD1). Kind of series: biochemical.
Series [4] relates to SARS-CoV-2 (wild-type strain). Nature of the series: microbe, parasite or virus in culture. In kind it is cell-based. The conditions noted are these: Severe acute respiratory syndrome coronavirus 2, 48 h.
A short description of a further series: in vitro. The conditions noted are these: human.
Series [5] has as its system SARS-CoV-2 (wild-type strain). Kind of series: microbe, parasite or virus in culture. The conditions noted are these: Severe acute respiratory syndrome coronavirus 2, Calu-3. It is filed as cell-based.
The target in the next series is SARS-CoV 3CLpro (Severe acute respiratory syndrome coronavirus, UniProt P0C6X7). In kind it is biochemical.

Some results are limits rather than exact numbers.

As for `CC(C)(C)[C@H](NC(=O)C(F)(F)F)C(=O)N1C[C@H]2[C@@H]([C@H]1C(=O)N[C@H](C#N)C[C@@H]1CCNC1=O)C2(C)C` [PF-07321332, Nirmatrelvir], the “average body weight change” value in the series with SARS-CoV-2 [1] is listed as “did not change”. Also, in series [2], a half-maximal effect (EC50) was put at 117 nM.

On to `O=C(Cn1nnc2ccccc21)N(Cc1cccc(Cl)c1)c1ccc(-c2cnc[nH]2)cc1` [CCF0058981], for which the EC50 in the series on SARS-CoV-2 [3] is ~500 nM.

`O=C(O)c1cc(Br)cc([N+](=O)[O-])c1N[C@@H]1CCCC[C@@H]1NC(=O)c1cncc2ccccc12` [WU-12] displayed an IC50 at SARS-CoV-2 3CLpro of 6110 ± 2630 nM.

With `CNC(=O)c1cc(Br)cc([N+](=O)[O-])c1N1CC[C@@]2(CN(C(=O)c3cncc4cc(O)ccc34)C[C@@H]2c2ccccc2)C1` [WU-02], the values for the EC50 in series [4] and in series [5] were 54 nM and 80 nM, respectively. For the same compound, the EC90 in series [4] amounted to 305 nM; in series [5], 201 ± 57 nM. Besides, the CC50 in “in vitro” is > 20000 nM. On SARS-CoV-2 3CLpro, this compound had an IC50 of 71 nM.

Consider `CCC(CCNc1c(C(=O)NC)cc(Br)cc1[N+](=O)[O-])NC(=O)c1cncc2cccc(O)c12` (stereo not shown) [WU-01], for which the IC50 against SARS-CoV-2 3CLpro is 648 ± 68 nM.

As to `CNC(=O)c1cc(Br)cc([N+](=O)[O-])c1N[C@@H]1CCCC[C@@H]1NC(=O)c1cncc2cc(O)ccc12` [WU-09], on SARS-CoV-2 3CLpro, the IC50 was 221 ± 35 nM.

At SARS-CoV-2 3CLpro, `COC(=O)c1cc(Br)cc([N+](=O)[O-])c1N[C@@H]1CCCC[C@@H]1NC(=O)c1cncc2ccccc12` [WU-11] returned an IC50 of 849 ± 161 nM.

Take `CNC(=O)c1cc(Br)cc(C(F)(F)F)c1N[C@@H]1CCCC[C@@H]1NC(=O)c1cncc2ccccc12` [WU-07]: on SARS-CoV-2 3CLpro, the IC50 stood at 239 ± 16 nM.

In turn, `CNC(=O)c1cc(Br)cc([N+](=O)[O-])c1NC(C(C)C)C1CN(C(=O)c2cncc3cc(O)ccc23)C1` (stereo not shown) [WU-05] showed an IC50 against SARS-CoV-2 3CLpro of 122 ± 16 nM.

Take `CNC(=O)c1cc(Br)cc(C#N)c1N[C@@H]1CCCC[C@@H]1NC(=O)c1cncc2ccccc12` [WU-08]: the IC50 against SARS-CoV-2 3CLpro is 467 ± 64 nM.

In the case of `CNC(=O)c1cc(Br)ccc1N[C@@H]1CCCC[C@@H]1NC(=O)c1cncc2ccccc12` [WU-06], the “inhibition of SARS-CoV 3CLpro enzyme activity” value on SARS-CoV 3CLpro is given as “showed no activity”. Besides, the “inhibitory activity against SARS-CoV-2 3CLpro” value on SARS-CoV-2 3CLpro is recorded as “abolished the activity”.

Compound `CNC(=O)c1cc(Br)cc([N+](=O)[O-])c1N[C@@H]1CCCC[C@@H]1NC(=O)c1cncc2cccc(O)c12` [WU-10] registered an IC50 on SARS-CoV-2 3CLpro of 135 ± 8 nM.

One may read the EC50 as the concentration giving half of the maximal effect. Broadly, the IC50 is the concentration that inhibits the measured activity by half. The low end stands for inhibition by little substance, the high end for a need for much substance. By EC90 is commonly meant the concentration at which the effect reaches the 90% level. A lower EC90 goes with greater potency.
